# System: Phytophthora infestans lycopersici
# Test: not given
# Type: in vivo
# Settings: METHOD 2 (unbanded)
row,SMILES,PHYTIN 1 d Prot/Foir PRCO
1,CCCc1nc2cc(CC(=O)N(COCC)c3snc(C)c3Cl)ccc2o1 [4(L3)],100
2,CCCc1nc2cc(CC(=O)N(COCCOC)c3snc(C)c3Cl)ccc2o1 [4(M3)],81
3,C=CCN(C(=O)Cc1ccc2oc(CC(C)(C)C)nc2c1)c1snc(C)c1Cl [15(E3)],83
4,C#CCN(C(=O)Cc1ccc2oc(CC(C)(C)C)nc2c1)c1snc(C)c1Cl [15(F3)],100
5,COCCOCN(C(=O)Cc1ccc2oc(CC(C)(C)C)nc2c1)c1snc(C)c1Cl [15(M3)],98
6,Cc1nsc(NC(=O)Cc2ccc3oc(SCC#N)nc3c2)c1Cl [228(A3)],66
7,Cc1nsc(NC(=O)Cc2ccc3oc(S)nc3c2)c1Cl [352(A3)],100

# System: Puccinia recondita
# Test: Fungicidal test, Puccinia recondita (PUCCRT) on wheat, PRCO
# Type: in vivo
# Settings: METHOD 2 (unbanded)
row,SMILES,PUCCRT 1 d Prot/Foir PRCO
1,CCCc1nc2cc(CC(=O)N(COCC)c3snc(C)c3Cl)ccc2o1 [4(L3)],100
2,CCCc1nc2cc(CC(=O)N(COCCOC)c3snc(C)c3Cl)ccc2o1 [4(M3)],85
3,C=CCN(C(=O)Cc1ccc2oc(CC(C)(C)C)nc2c1)c1snc(C)c1Cl [15(E3)],74
4,C#CCN(C(=O)Cc1ccc2oc(CC(C)(C)C)nc2c1)c1snc(C)c1Cl [15(F3)],95
5,COCCOCN(C(=O)Cc1ccc2oc(CC(C)(C)C)nc2c1)c1snc(C)c1Cl [15(M3)],6
6,Cc1nsc(NC(=O)Cc2ccc3oc(SCC#N)nc3c2)c1Cl [228(A3)],6
7,Cc1nsc(NC(=O)Cc2ccc3oc(S)nc3c2)c1Cl [352(A3)],100

# System: Musca domestica
# Test: not given
# Settings: 500 ppm by weight; knockdown assessed 15 minutes after treatment
row,SMILES,"MUSCDO AC = Musca domestica (knockdown), score"
1,CCCc1nc2cc(CC(=O)N(COCC)c3snc(C)c3Cl)ccc2o1 [4(L3)],9 (9 indicates 80-100% mortality)
2,CCCc1nc2cc(CC(=O)N(COCCOC)c3snc(C)c3Cl)ccc2o1 [4(M3)],0 (0 indicates less than 40% mortality)
3,C=CCN(C(=O)Cc1ccc2oc(CC(C)(C)C)nc2c1)c1snc(C)c1Cl [15(E3)],0 (0 indicates less than 40% mortality)
4,C#CCN(C(=O)Cc1ccc2oc(CC(C)(C)C)nc2c1)c1snc(C)c1Cl [15(F3)],0 (0 indicates less than 40% mortality)
5,COCN(C(=O)Cc1ccc2oc(CC(C)(C)C)nc2c1)c1snc(C)c1Cl [15(K3)],0 (0 indicates less than 40% mortality)
6,COCCOCN(C(=O)Cc1ccc2oc(CC(C)(C)C)nc2c1)c1snc(C)c1Cl [15(M3)],0 (0 indicates less than 40% mortality)
7,CC=Cc1nc2cc(CC(=O)Nc3snc(C)c3Cl)ccc2o1 [45(A3)],9 (9 indicates 80-100% mortality)
8,Cc1nsc(NC(=O)Cc2ccc3oc(Cl)nc3c2)c1Cl [174(A3)],0 (0 indicates less than 40% mortality)
9,Cc1nsc(NC(=O)Cc2ccc3oc(SCC#N)nc3c2)c1Cl [228(A3)],0 (0 indicates less than 40% mortality)
10,Cc1nsc(NC(=O)Cc2ccc3oc(S)nc3c2)c1Cl [352(A3)],0 (0 indicates less than 40% mortality)

# System: Meloidogyne incognita
# Test: Nematode test, J2 infective juveniles of Meloidogyne incognita, mortality
# Settings: 12.5 ppm; J2 infective juveniles suspended in solution; mortality after three days
# Experimental: The activities of individual compounds of formula (I) were determined using a variety of pests. With the exception of nematodes, the pests were treated with a liquid composition containing 500 parts per million (ppm) by weight of a compound unless otherwise stated. Each composition was made by dissolving the compound in an acetone and ethanol (50:50 by volume) mixture and diluting the solution with water containing 0.05% by volume of a wetting agent, SYNPERONIC NP8, until the liquid composition contained the required concentration of the compound.
# The test procedure for nematodes involved dissolving the compound in an acetone and ethanol (50:50 by volume) mixture and diluting the solution with water to obtain a final concentration of the compound of 12.5 ppm. J2 infective juveniles of Meloidogyne incognita were suspended in the solution in a glass vial and mortality assessed after a period of three days.
row,SMILES,"MELGIN = Meloidogyne incognita, grading of mortality (score)"
1,CCCc1nc2cc(CC(=O)N(COCC)c3snc(C)c3Cl)ccc2o1 [4(L3)],0 (0 indicates less than 40% mortality)
2,CCCc1nc2cc(CC(=O)N(COCCOC)c3snc(C)c3Cl)ccc2o1 [4(M3)],0 (0 indicates less than 40% mortality)
3,C=CCN(C(=O)Cc1ccc2oc(CC(C)(C)C)nc2c1)c1snc(C)c1Cl [15(E3)],0 (0 indicates less than 40% mortality)
4,C#CCN(C(=O)Cc1ccc2oc(CC(C)(C)C)nc2c1)c1snc(C)c1Cl [15(F3)],0 (0 indicates less than 40% mortality)
5,COCN(C(=O)Cc1ccc2oc(CC(C)(C)C)nc2c1)c1snc(C)c1Cl [15(K3)],0 (0 indicates less than 40% mortality)
6,COCCOCN(C(=O)Cc1ccc2oc(CC(C)(C)C)nc2c1)c1snc(C)c1Cl [15(M3)],0 (0 indicates less than 40% mortality)
7,CC=Cc1nc2cc(CC(=O)Nc3snc(C)c3Cl)ccc2o1 [45(A3)],0 (0 indicates less than 40% mortality)
8,Cc1nsc(NC(=O)Cc2ccc3oc(C(F)(F)C(F)(F)Cl)nc3c2)c1Cl [86(A3)],0 (0 indicates less than 40% mortality)
9,Cc1nsc(NC(=O)Cc2ccc3oc(Cl)nc3c2)c1Cl [174(A3)],0 (0 indicates less than 40% mortality)
10,Cc1nsc(NC(=O)Cc2ccc3oc(SCC#N)nc3c2)c1Cl [228(A3)],0 (0 indicates less than 40% mortality)
11,Cc1nsc(NC(=O)Cc2ccc3oc(-c4ccc([N+](=O)[O-])cc4Cl)nc3c2)c1Cl [267(A3)],0 (0 indicates less than 40% mortality)
12,Cc1nsc(NC(=O)Cc2ccc3oc(-c4ccccc4F)nc3c2)c1Cl [272(A3)],0 (0 indicates less than 40% mortality)
13,Cc1nsc(NC(=O)Cc2ccc3oc(Cc4cccs4)nc3c2)c1Cl [334(A3)],0 (0 indicates less than 40% mortality)
14,Cc1nsc(NC(=O)Cc2ccc3oc(-c4cccnc4Cl)nc3c2)c1Cl [343(A3)],0 (0 indicates less than 40% mortality)
15,Cc1nsc(NC(=O)Cc2ccc3oc(-c4ccno4)nc3c2)c1Cl [349(A3)],0 (0 indicates less than 40% mortality)
16,Cc1nsc(NC(=O)Cc2ccc3oc(S)nc3c2)c1Cl [352(A3)],0 (0 indicates less than 40% mortality)
